{"source": "patent US10821115B2", "about": "“Compounds that inhibit Mcl-1 protein” (priority 2017, dated 2020)", "key": {"[1]": {"tested_on": "human multiple myeloma cell line, OPM-2", "assay": "Cell viability assay (OPM-2 10 FBS), CellTiter-Glo", "type": "cell-based", "settings": "Homo sapiens, OPM-2, 16 h, read-out: OPM-2 10% FBS IC50 IP, OPM-2 cells, 10% FBS, 16 h incubation", "in_short": "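Steps: plate cells at 3000/well in 10% FBS growth medium, add serially diluted compound, incubate 16 h at 37 °C with 5% CO2, add detection reagent and read luminescence after 25 min. A 4-parameter logistic model gives IC50.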"}, "[2]": {"target": "recombinant human Mcl-1 (residues 171-327) / Bim interaction (Homo sapiens (Human), UniProt Q07820)", "sequence (Q07820 171-327)": "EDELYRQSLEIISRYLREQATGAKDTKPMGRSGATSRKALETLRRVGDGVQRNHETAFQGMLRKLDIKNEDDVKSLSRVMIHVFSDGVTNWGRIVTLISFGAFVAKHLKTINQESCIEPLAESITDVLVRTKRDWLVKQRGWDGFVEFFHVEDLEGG", "assay": "biochemical", "type": "binding", "settings": "0.1 nM Mcl-1(171-327), 0.05 nM biotin-Bim (51-76); read-out: Mcl-1 HTRF IC50"}}, "data": [{"smiles": "COCC[C@@H]1[C@@H](C)C/C=C/[C@](CN2CCN(C(C)(C)COC)CC2)(OC)[C@@H]2CC[C@H]2CN2C[C@@]3(CCCc4cc(Cl)ccc43)COc3ccc(nc32)C(=O)NS1(=O)=O", "note": "[Example 27, (1S,3′R,6′R,7′S,8′E,11′S,12′R)-6-chloro-7′-methoxy-7′-((4-(2-methoxy-1,1-dimethylethyl)-1-piperazinyl)methyl)-12′-(2-methoxyethyl)-11′-methyl-3,4-dihydro-2H,15′H-spiro[naphthalene-1,22′-[20]oxa[13]thia[1,14,25]triazatetracyclo [14.7.2.0~3,6~.0~19,24~]pentacosa[8,16,18,24]tetraen]-15′-one 13′,13′-dioxide]", "values": [{"measurement": "IC50", "setting": "[1]", "value": 29, "unit": "nM"}, {"measurement": "IC50", "setting": "[2]", "value": 0.095, "unit": "nM"}]}, {"smiles": "CC[C@@H]1CC/C=C/[C@](CN2CCN3CCOC[C@@H]3C2)(OC)[C@@H]2CC[C@H]2CN2C[C@@]3(CCCc4cc(Cl)ccc43)COc3ccc(cc32)C(=O)NS1(=O)=O", "note": "[Example 28, (1S,3′R,6′R,7′S,8′E,12′R)-6-chloro-12′-ethyl-7′-((9aS)-hexahydropyrazino[2,1-c][1,4]oxazin-8(1H)-ylmethyl)-7′-methoxy-3,4-dihydro-2H,15′H-spiro[naphthalene-1,22′-[20]oxa[13]thia[1,14]diazatetracyclo [14.7.2.0~3,6~.0~19,24~]pentacosa[8,16,18,24]tetraen]-15′-one 13′,13′-dioxide]", "values": [{"measurement": "IC50", "setting": "[1]", "value": 111, "unit": "nM"}, {"measurement": "IC50", "setting": "[2]", "value": 0.082, "unit": "nM"}]}, {"smiles": "CC[C@@H]1CC/C=C/[C@](CN2CCN3CCCC[C@@H]3C2)(OC)[C@@H]2CC[C@H]2CN2C[C@@]3(CCCc4cc(Cl)ccc43)COc3ccc(cc32)C(=O)NS1(=O)=O", "note": "[Example 29, (1S,3′R,6′R,7′S,8′E,12′R)-6-chloro-12′-ethyl-7′-methoxy-7′-((9aR)-octahydro-2H-pyrido[1,2-a]pyrazin-2-ylmethyl)-3,4-dihydro-2H,15′H-spiro[naphthalene-1,22′-[20]oxa[13]thia[1,14]diazatetracyclo [14.7.2.0~3,6~.0~19,24~]pentacosa[8,16,18,24]tetraen]-15′-one 13′,13′-dioxide]", "values": [{"measurement": "IC50", "setting": "[1]", "value": 186, "unit": "nM"}, {"measurement": "IC50", "setting": "[2]", "value": 0.249, "unit": "nM"}]}, {"smiles": "CC[C@@H]1CC/C=C/[C@@](CN2CCN3CCOC[C@@H]3C2)(OC)[C@@H]2CC[C@H]2CN2C[C@@]3(CCCc4cc(Cl)ccc43)COc3ccc(cc32)C(=O)NS1(=O)=O", "note": "[Example 30, (1S,3′R,6′R,7′R,8′E,12′R)-6-chloro-12′-ethyl-7′-((9aS)-hexahydropyrazino[2,1-c][1,4]oxazin-8(1H)-ylmethyl)-7′-methoxy-3,4-dihydro-2H,15′H-spiro[naphthalene-1,22′-[20]oxa[13]thia[1,14]diazatetracyclo [14.7.2.0~3,6~.0~19,24~]pentacosa[8,16,18,24]tetraen]-15′-one 13′,13′-dioxide]", "values": [{"measurement": "IC50", "setting": "[1]", "value": 166, "unit": "nM"}, {"measurement": "IC50", "setting": "[2]", "value": 0.11, "unit": "nM"}]}, {"smiles": "CC[C@@H]1CC/C=C/[C@](CN2CCN(C)CC2)(OC)[C@@H]2CC[C@H]2CN2C[C@@]3(CCCc4cc(Cl)ccc43)COc3ccc(cc32)C(=O)NS1(=O)=O", "note": "[Example 31, (1S,3′R,6′R,7′S,8′E,12′R)-6-chloro-12′-ethyl-7′-methoxy-7′-((4-methyl-1-piperazinyl)methyl)-3,4-dihydro-2H,15′H-spiro[naphthalene-1,22′-[20]oxa[13]thia[1,14]diazatetracyclo [14.7.2.0~3,6~.0~19,24~]pentacosa[8,16,18,24]tetraen]-15′-one 13′,13′-dioxide]", "values": [{"measurement": "IC50", "setting": "[1]", "value": 216, "unit": "nM"}, {"measurement": "IC50", "setting": "[2]", "value": 0.184, "unit": "nM"}]}, {"smiles": "CC[C@@H]1CC/C=C/[C@@](CN2CCN3CCCC[C@@H]3C2)(OC)[C@@H]2CC[C@H]2CN2C[C@@]3(CCCc4cc(Cl)ccc43)COc3ccc(cc32)C(=O)NS1(=O)=O", "note": "[Example 32, (1S,3′R,6′R,7′R,8′E,12′R)-6-chloro-12′-ethyl-7′-methoxy-7′-((9aR)-octahydro-2H-pyrido[1,2-a]pyrazin-2-ylmethyl)-3,4-dihydro-2H,15′H-spiro[naphthalene-1,22′-[20]oxa[13]thia[1,14]diazatetracyclo [14.7.2.0~3,6~.0~19,24~]pentacosa[8,16,18,24]tetraen]-15′-one 13′,13′-dioxide]", "values": [{"measurement": "IC50", "setting": "[1]", "value": 147, "unit": "nM"}, {"measurement": "IC50", "setting": "[2]", "value": 0.128, "unit": "nM"}]}, {"smiles": "CO[C@@]1(CN(C)CCN2CCOCC2)/C=C/C[C@H](C)[C@@H](C)S(=O)(=O)NC(=O)c2ccc3c(c2)N(C[C@@H]2CC[C@H]21)C[C@@]1(CCCc2cc(Cl)ccc21)CO3", "note": "[Example 35, (1S,3′R,6′R,7′S,8′E,11′S,12′R)-6-chloro-7′-methoxy-11′,12′-dimethyl-7′-((methyl(2-(4-morpholinyl)ethyl)amino)methyl)-3,4-dihydro-2H,15′H-spiro[naphthalene-1,22′-[20]oxa[13]thia[1,14]diazatetracyclo [14.7.2.0~3,6~.0~19,24~]pentacosa[8,16,18,24]tetraen]-15′-one 13′,13′-dioxide]", "values": [{"measurement": "IC50", "setting": "[1]", "value": 235, "unit": "nM"}, {"measurement": "IC50", "setting": "[2]", "value": 0.218, "unit": "nM"}]}, {"smiles": "CO[C@]1(CN(C)CCN2CCOCC2)/C=C/C[C@H](C)[C@@H](C)S(=O)(=O)NC(=O)c2ccc3c(c2)N(C[C@@H]2CC[C@H]21)C[C@@]1(CCCc2cc(Cl)ccc21)CO3", "note": "[Example 37, (1S,3′R,6′R,7′R,8′E,11′S,12′R)-6-chloro-7′-methoxy-11′,12′-dimethyl-7′-((methyl(2-(4-morpholinyl)ethyl)amino)methyl)-3,4-dihydro-2H,15′H-spiro[naphthalene-1,22′-[20]oxa[13]thia[1,14]diazatetracyclo [14.7.2.0~3,6~.0~19,24~]pentacosa[8,16,18,24]tetraen]-15′-one 13′,13′-dioxide]", "values": [{"measurement": "IC50", "setting": "[1]", "value": 643, "unit": "nM"}, {"measurement": "IC50", "setting": "[2]", "value": 0.615, "unit": "nM"}]}, {"smiles": "CO[C@]1(CN2CCN3CCOC[C@@H]3C2)/C=C/C[C@H](C)[C@@H](CC2CCC2)S(=O)(=O)NC(=O)c2ccc3c(c2)N(C[C@@H]2CC[C@H]21)C[C@@]1(CCCc2cc(Cl)ccc21)CO3", "note": "[Example 38]", "values": [{"measurement": "IC50", "setting": "[1]", "value": 489, "unit": "nM"}, {"measurement": "IC50", "setting": "[2]", "value": 0.342, "unit": "nM"}]}, {"smiles": "CO[C@@]1(CN2CCN3CCOC[C@@H]3C2)/C=C/C[C@H](C)[C@@H](CC2CCC2)S(=O)(=O)NC(=O)c2ccc3c(c2)N(C[C@@H]2CC[C@H]21)C[C@@]1(CCCc2cc(Cl)ccc21)CO3", "note": "[Example 39, (1S,3′R,6′R,7′S,8′E,11′S,12′R)-6-chloro-12′-(cyclobutylmethyl)-7′-((9aS)-hexahydropyrazino[2,1-c][1,4]oxazin-8(1H)-ylmethyl)-7′-methoxy-11′-methyl-3,4-dihydro-2H,15′H-spiro[naphthalene-1,22′-[20]oxa[13]thia[1,14]diazatetracyclo [14.7.2.0~3,6~.0~19,24~]pentacosa[8,16,18,24]tetraen]-15′-one 13′,13′-dioxide]", "values": [{"measurement": "IC50", "setting": "[1]", "value": 389, "unit": "nM"}, {"measurement": "IC50", "setting": "[2]", "value": 0.377, "unit": "nM"}]}, {"smiles": "CO[C@]1(CN2CCN3CCCC[C@@H]3C2)/C=C/C[C@H](C)[C@@H](CC2CCC2)S(=O)(=O)NC(=O)c2ccc3c(c2)N(C[C@@H]2CC[C@H]21)C[C@@]1(CCCc2cc(Cl)ccc21)CO3", "note": "[Example 40, (1S,3′R,6′R,7′R,8′E,11′S,12′R)-6-chloro-12′-(cyclobutylmethyl)-7′-methoxy-11′-methyl-7′-((9aR)-octahydro-2H-pyrido[1,2-a]pyrazin-2-ylmethyl)-3,4-dihydro-2H,15′H-spiro[naphthalene-1,22′-[20]oxa[13]thia[1,14]diazatetracyclo [14.7.2.0~3,6~.0~19,24~]pentacosa[8,16,18,24]tetraen]-15′-one 13′,13′-dioxide]", "values": [{"measurement": "IC50", "setting": "[1]", "value": 571, "unit": "nM"}, {"measurement": "IC50", "setting": "[2]", "value": 0.444, "unit": "nM"}]}, {"smiles": "CO[C@@]1(CN2CCN3CCCC[C@@H]3C2)/C=C/C[C@H](C)[C@@H](CC2CCC2)S(=O)(=O)NC(=O)c2ccc3c(c2)N(C[C@@H]2CC[C@H]21)C[C@@]1(CCCc2cc(Cl)ccc21)CO3", "note": "[Example 41, (1S,3′R,6′R,7′S,8′E,11′S,12′R)-6-chloro-12′-(cyclobutylmethyl)-7′-methoxy-11′-methyl-7′-((9aR)-octahydro-2H-pyrido[1,2-a]pyrazin-2-ylmethyl)-3,4-dihydro-2H,15′H-spiro[naphthalene-1,22′-[20]oxa[13]thia[1,14]diazatetracyclo [14.7.2.0~3,6~.0~19,24~]pentacosa[8,16,18,24]tetraen]-15′-one 13′,13′-dioxide]", "values": [{"measurement": "IC50", "setting": "[1]", "value": 810, "unit": "nM"}, {"measurement": "IC50", "setting": "[2]", "value": 0.642, "unit": "nM"}]}, {"smiles": "CCO[C@]1(CN2CCN3CCCC[C@@H]3C2)/C=C/CC[C@@H](CC)S(=O)(=O)NC(=O)c2ccc3c(c2)N(C[C@@H]2CC[C@H]21)C[C@@]1(CCCc2cc(Cl)ccc21)CO3", "note": "[Example 42, (1S,3′R,6′R,7′R,8′E,12′R)-6-chloro-7′-ethoxy-12′-ethyl-7′-((9aR)-octahydro-2H-pyrido[1,2-a]pyrazin-2-ylmethyl)-3,4-dihydro-2H,15′H-spiro[naphthalene-1,22′-[20]oxa[13]thia[1,14]diazatetracyclo [14.7.2.0~3,6~.0~19,24~]pentacosa[8,16,18,24]tetraen]-15′-one 13′,13′-dioxide]", "values": [{"measurement": "IC50", "setting": "[1]", "value": 149, "unit": "nM"}, {"measurement": "IC50", "setting": "[2]", "value": 0.17, "unit": "nM"}]}, {"smiles": "CCO[C@@]1(CN2CCN3CCCC[C@@H]3C2)/C=C/CC[C@@H](CC)S(=O)(=O)NC(=O)c2ccc3c(c2)N(C[C@@H]2CC[C@H]21)C[C@@]1(CCCc2cc(Cl)ccc21)CO3", "note": "[Example 43, (1S,3′R,6′R,7′S,8′E,12′R)-6-chloro-7′-ethoxy-12′-ethyl-7′-((9aR)-octahydro-2H-pyrido[1,2-a]pyrazin-2-ylmethyl)-3,4-dihydro-2H,15′H-spiro[naphthalene-1,22′-[20]oxa[13]thia[1,14]diazatetracyclo [14.7.2.0~3,6~.0~19,24~]pentacosa[8,16,18,24]tetraen]-15′-one 13′,13′-dioxide]", "values": [{"measurement": "IC50", "setting": "[1]", "value": 888, "unit": "nM"}, {"measurement": "IC50", "setting": "[2]", "value": 1.64, "unit": "nM"}]}, {"smiles": "CCO[C@@]1(CN2CCN3CCOC[C@@H]3C2)/C=C/C[C@H](C)[C@@H](CC2CCC2)S(=O)(=O)NC(=O)c2ccc3c(c2)N(C[C@@H]2CC[C@H]21)C[C@@]1(CCCc2cc(Cl)ccc21)CO3", "note": "[Example 44, (1S,3′R,6′R,7′S,8′E,11′S,12′R)-6-chloro-12′-(cyclobutylmethyl)-7′-ethoxy-7′-((9aS)-hexahydropyrazino[2,1-c][1,4]oxazin-8(1H)-ylmethyl)-11′-methyl-3,4-dihydro-2H,15′H-spiro[naphthalene-1,22′-[20]oxa[13]thia[1,14]diazatetracyclo [14.7.2.0~3,6~.0~19,24~]pentacosa[8,16,18,24]tetraen]-15′-one 13′,13′-dioxide]", "values": [{"measurement": "IC50", "setting": "[1]", "value": 1360, "unit": "nM"}, {"measurement": "IC50", "setting": "[2]", "value": 0.288, "unit": "nM"}]}]}
